In US9884063B2, “Amido-substituted azole compounds” (Bayer Pharma Aktiengesellschaft, priority 2014, dated 2018):

Target: T1, TNKS2 (Homo sapiens, UniProt Q9H2K2)
T1 sequence (Q9H2K2 1-1166): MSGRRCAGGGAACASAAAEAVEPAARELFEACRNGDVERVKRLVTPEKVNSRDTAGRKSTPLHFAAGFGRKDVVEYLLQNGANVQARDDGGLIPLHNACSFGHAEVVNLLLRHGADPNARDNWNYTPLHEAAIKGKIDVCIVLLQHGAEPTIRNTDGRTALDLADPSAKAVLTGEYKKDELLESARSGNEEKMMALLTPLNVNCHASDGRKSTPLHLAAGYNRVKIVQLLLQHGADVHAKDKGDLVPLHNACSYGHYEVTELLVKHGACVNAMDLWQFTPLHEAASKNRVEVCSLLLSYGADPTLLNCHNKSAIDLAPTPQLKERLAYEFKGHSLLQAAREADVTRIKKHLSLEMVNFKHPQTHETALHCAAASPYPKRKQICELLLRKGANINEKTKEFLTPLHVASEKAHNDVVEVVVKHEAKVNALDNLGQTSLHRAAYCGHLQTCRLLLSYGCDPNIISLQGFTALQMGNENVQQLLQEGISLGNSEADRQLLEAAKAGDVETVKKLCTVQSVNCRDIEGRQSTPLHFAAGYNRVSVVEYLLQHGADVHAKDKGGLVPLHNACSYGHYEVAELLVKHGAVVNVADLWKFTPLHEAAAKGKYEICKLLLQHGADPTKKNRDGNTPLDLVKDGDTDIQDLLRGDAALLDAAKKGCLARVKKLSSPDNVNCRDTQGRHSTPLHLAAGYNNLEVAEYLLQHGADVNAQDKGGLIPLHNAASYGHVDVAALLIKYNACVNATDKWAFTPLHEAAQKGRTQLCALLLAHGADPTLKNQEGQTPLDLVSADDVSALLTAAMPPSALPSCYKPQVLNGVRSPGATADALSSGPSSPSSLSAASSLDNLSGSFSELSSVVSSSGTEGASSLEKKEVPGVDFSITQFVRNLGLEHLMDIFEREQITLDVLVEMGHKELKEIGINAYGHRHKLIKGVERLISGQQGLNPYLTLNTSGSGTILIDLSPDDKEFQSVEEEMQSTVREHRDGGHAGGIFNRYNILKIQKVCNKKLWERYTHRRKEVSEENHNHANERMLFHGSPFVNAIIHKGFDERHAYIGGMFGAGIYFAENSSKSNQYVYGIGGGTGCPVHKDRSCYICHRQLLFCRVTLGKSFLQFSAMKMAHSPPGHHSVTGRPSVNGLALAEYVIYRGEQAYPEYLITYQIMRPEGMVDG
Test: Modified TNKS2 Assay 2 (auto-parsylation, [3H]-NAD+ SPA)
Format: biochemical
Conditions: 6 nM TNKS2, 96 well

Row | Compound | IC50 [nM]
1 | CC1(C)CC(NC(=O)c2nc[nH]c2C(=O)Nc2ccc(NC(=O)c3ccc(F)cc3Cl)cc2)CCO1 (stereo not shown) [Example 391, N^5-{4-[(2-chloro-4-fluorobenzoyl)amino]phenyl}-N^4-(2,2-dimethyltetrahydro-2H-pyran-4-yl)-1H-imidazole-4,5-dicarboxamide] | 450
2 | CCN(CC)CCCCNC(=O)c1nc[nH]c1C(=O)Nc1ccc(NC(=O)c2ccc(F)cc2Cl)cc1 [Example 393, N^5-{4-[(2-chloro-4-fluorobenzoyl)amino]phenyl}-N^4-[4-(diethylamino)butyl]-1H-imidazole-4,5-dicarboxamide] | 750
3 | O=C(Nc1ccc(NC(=O)c2[nH]cnc2C(=O)NCCc2ccncc2)cc1)c1ccc(F)cc1Cl [Example 394, N^5-{4-[(2-chloro-4-fluorobenzoyl)amino]phenyl}-N^4-[2-(pyridin-4-yl)ethyl]-1H-imidazole-4,5-dicarboxamide] | 60
4 | O=C(Nc1ccc(NC(=O)c2nc[nH]c2C(=O)NCC2CCOCC2)cc1)c1ccc(F)cc1Cl [Example 397, N^5-{4-[(2-chloro-4-fluorobenzoyl)amino]phenyl}-N^4-(tetrahydro-2H-pyran-4-ylmethyl)-1H-imidazole-4,5-dicarboxamide] | 200
5 | O=C(Nc1ccc(NC(=O)c2[nH]cnc2C(=O)NCCc2cccnc2)cc1)c1ccc(F)cc1Cl [Example 405, N^5-{4-[(2-chloro-4-fluorobenzoyl)amino]phenyl}-N^4-[2-(pyridin-3-yl)ethyl]-1H-imidazole-4,5-dicarboxamide] | 100
6 | CCN1CCC[C@@H]1CNC(=O)c1nc[nH]c1C(=O)Nc1ccc(NC(=O)c2ccc(F)cc2Cl)cc1 [Example 413, N^5-{4-[(2-chloro-4-fluorobenzoyl)amino]phenyl}-N^4-{[(2R)-1-ethylpyrrolidin-2-yl]methyl}-1H-imidazole-4,5-dicarboxamide] | 90
7 | CN1CCN(CC(C)(C)CNC(=O)c2nc[nH]c2C(=O)Nc2ccc(NC(=O)c3ccc(F)cc3Cl)cc2)CC1 [Example 415, N^5-{4-[(2-chloro-4-fluorobenzoyl)amino]phenyl}-N^4-[2,2-dimethyl-3-(4-methylpiperazin-1-yl)propyl]-1H-imidazole-4,5-dicarboxamide] | 80
